Laboratory results published in patent US10870647B2, “Imidazopyridine derivative, method for preparing same, and pharmaceutical composition containing same as active ingredient for preventing or treating cancer” (DAEGU-GYEONGBUK MEDICAL INNOVATION FOUNDATION, priority 2016, dated 2020).

Columns and labels:
Assay type in all cases: cell-based
[1] = system: M-NFS-60; test: Cancer cell proliferation inhibition, CCK-8, 72 hours
Method in brief: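 Cells were grown in RPMI with 10% FBS, 0.05 mM 2-mercaptoethanol and human M-CSF, and seeded at 20000 cells/well. Compounds were added from a 3-fold DMSO dilution series topping at 1968 nM (dilution-plate concentration; 11 points including DMSO control). After 72 h at 37 °C, CCK-8 was added for 2 h and OD450 read.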

[2] = system: Ret^Parental (Ba/F3); test: Cancer cell proliferation inhibition, MTS assay, 72 hours; details: Mus musculus, BaF3
Method in brief: (§1)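 3,000 cells/well, 24 h pre-culture (37° C, 5% CO2); serial dilution of compound, top 50 μM, DMSO 0.05% v/v; 72 h exposure; MTS/PMS 2 h, OD450. IC50 = concentration giving 50% inhibition relative to DMSO control, n = 3 data sets.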

[3] = system: SK-MEL-28; test: as above; details: Homo sapiens
Method in brief: as §1

[4] = system: RET (LC2/ad-CDC6); test: as above; details: 72 h
Method in brief: as §1

[5] = system: Huh7; test: as above; details: Homo sapiens, Huh-7
Method in brief: as §1

[6] = molecular target: T1, Ret^wt (Ba/F3) (Homo sapiens, UniProt P07949); test: as above; details: read-out: Ret^wt (Ba/F3) IC50
T1 construct: candidates are KIF5B, CCDC6, TEL (ETV6), or none (full-length RET)
Method in brief: as §1

[7] = system: FYN (MCP-1); test: as above
Method in brief: as §1

[8] = molecular target: T2, Ret^V804M (Ba/F3) (Homo sapiens, UniProt P07949, V804M, cells depend on it, form not given); test: as above; details: read-out: Ret^V804M (Ba/F3) IC50
T2 construct: candidates are KIF5B, CCDC6, TEL (ETV6), or none (full-length RET)
Method in brief: as §1

[9] = system: A375; test: Cancer cell proliferation inhibition, CCK-8, 72 hours; details: Homo sapiens, A-375, 72 h
Method in brief: (§2)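 A375 cells (2×10^3/well) attached overnight, then received 9 three-fold dilutions (0.0015-10 μM). K562 and Ba/F3-T315I (1×10^4/well) were given 9-point series (3-fold and 5-fold respectively), final 0-10 μM. After 72 h at 37°C, CCK-8 was added for 2 h; blank-subtracted OD450 gave IC50.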

[10] = system: K562; test: as above; details: Homo sapiens, K562, 72 h
Method in brief: as §2

[11] = molecular target: T3, T315I (Ba/F3) (Homo sapiens, UniProt P00519, T315I, cells depend on it); test: as above; details: read-out: T315I (Ba/F3) IC50
T3 construct: fused on or other part: P11274 (Breakpoint cluster region protein)
Method in brief: as §2

[12] = system: FYN (FN); test: Cancer cell proliferation inhibition, MTS assay, 72 hours
Method in brief: as §1

T2 sequence (P07949 whole entry V804M, form open): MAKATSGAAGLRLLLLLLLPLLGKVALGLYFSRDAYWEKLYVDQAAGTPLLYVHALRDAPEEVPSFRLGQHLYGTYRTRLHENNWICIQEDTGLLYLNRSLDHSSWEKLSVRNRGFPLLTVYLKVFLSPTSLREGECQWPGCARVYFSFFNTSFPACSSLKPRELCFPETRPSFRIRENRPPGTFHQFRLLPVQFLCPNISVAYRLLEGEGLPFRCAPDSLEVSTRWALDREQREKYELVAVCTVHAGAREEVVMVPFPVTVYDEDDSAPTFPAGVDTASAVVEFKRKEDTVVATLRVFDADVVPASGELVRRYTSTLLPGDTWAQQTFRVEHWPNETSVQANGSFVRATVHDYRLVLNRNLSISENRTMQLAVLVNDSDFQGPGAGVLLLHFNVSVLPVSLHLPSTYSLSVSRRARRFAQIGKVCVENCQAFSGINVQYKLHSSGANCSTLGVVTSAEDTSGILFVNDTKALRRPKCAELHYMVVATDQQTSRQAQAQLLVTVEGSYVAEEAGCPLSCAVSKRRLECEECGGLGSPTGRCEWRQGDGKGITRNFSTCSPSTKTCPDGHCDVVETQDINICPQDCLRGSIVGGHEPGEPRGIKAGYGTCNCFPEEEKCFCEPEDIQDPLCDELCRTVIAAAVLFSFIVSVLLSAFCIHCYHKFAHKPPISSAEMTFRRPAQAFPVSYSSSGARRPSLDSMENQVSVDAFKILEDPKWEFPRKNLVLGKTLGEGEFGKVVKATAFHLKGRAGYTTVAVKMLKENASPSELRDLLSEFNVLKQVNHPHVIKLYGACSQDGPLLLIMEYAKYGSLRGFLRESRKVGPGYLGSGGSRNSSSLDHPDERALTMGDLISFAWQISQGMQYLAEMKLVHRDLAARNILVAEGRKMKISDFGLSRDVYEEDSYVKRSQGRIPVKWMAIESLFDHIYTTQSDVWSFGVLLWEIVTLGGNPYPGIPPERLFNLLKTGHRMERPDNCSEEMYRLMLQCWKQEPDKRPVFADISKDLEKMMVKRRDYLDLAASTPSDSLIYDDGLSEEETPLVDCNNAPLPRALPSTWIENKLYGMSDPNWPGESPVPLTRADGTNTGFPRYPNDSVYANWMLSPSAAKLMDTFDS
T1 sequence (P07949 whole entry, change not shown): as the sequence (P07949 whole entry V804M, form open) above, with M804V counted along it

SMILES	IC50 [1]	IC50 [2]	IC50 [3]	IC50 [4]	IC50 [5]	GI50 [6]	IC50 [7]	GI50 [8]	IC50 [9]	IC50 [10]	GI50 [11]	IC50 [12]
Cc1ccc(C(=O)Nc2ccc(CN3CCN(C)CC3)c(C(F)(F)F)c2)cc1C#Cc1cnc2c(Nc3cnn(C)c3)cccn12 [Example 1, 4-methyl-3-((8-((1-methyl-1H-pyrazol-4-yl)amino)imidazo[1,2-a]pyridin-3-yl)ethynyl)-N-(4-((4-methylpiperazin-1-yl)methyl)-3-(trifluoromethyl)phenyl)benzamide]	64.6 nM	1210 nM	334 nM	< 10 nM	65 nM	3 nM	730 nM	5 nM	26 nM	< 1 nM	26 nM	–
CCN1CCN(Cc2ccc(NC(=O)c3ccc(C)c(C#Cc4cnc5c(Nc6cnn(C)c6)cccn45)c3)cc2C(F)(F)F)CC1 [Example 8, N-(4-((4-ethylpiperazin-1-yl)methyl)-3-(trifluoromethyl)phenyl)-4-methyl-3-((8-((1-methyl-1H-pyrazol-4-yl)amino)imidazo[1,2-a]pyridin-3-yl)ethynyl)benzamide]	34.1 nM	1320 nM	586 nM	–	255 nM	2 nM	< 1000 nM	10 nM	52 nM	< 1 nM	32 nM	< 1000 nM
Cc1ccc(C(=O)Nc2cccc(C(F)(F)F)c2)cc1C#Cc1cnc2c(Nc3cnn(C4CCNCC4)c3)cccn12 [Example 11, 4-methyl-3-((8-((1-(piperidin-4-yl)-1H-pyrazol-4-yl)amino)imidazo[1,2-a]pyridin-3-yl)ethynyl)-N-(3-(trifluoromethyl)phenyl)benzamide]	30.8 nM	2400 nM	1460 nM	–	1220 nM	5 nM	< 100 nM	98 nM	1250 nM	< 1 nM	6.34 nM	< 100 nM
Cc1cn(-c2cc(NC(=O)c3ccc(C)c(C#Cc4cnc5c(Nc6cnn(C)c6)cccn45)c3)cc(C(F)(F)F)c2)cn1 [Example 12, 4-methyl-N-(3-(4-methyl-1H-imidazol-1-yl)-5-(trifluoromethyl)phenyl)-3-((8-((1-methyl-1H-pyrazol-4-yl)amino)imidazo[1,2-a]pyridin-3-yl)ethynyl)benzamide]	247 nM	–	> 10000 nM	< 100 nM	147 nM	17 nM	< 100 nM	54 nM	942 nM	< 1 nM	6.72 nM	< 100 nM
Cc1ccc(NC(=O)C2(C(=O)Nc3ccc(F)cc3)CC2)cc1C#Cc1cnc2c(Nc3cnn(C(C)C)c3)cccn12 [Example 78]	672 nM	–	4550 nM	< 10000 nM	5120 nM	–	–	–	4600 nM	1200 nM	3240 nM	–
